# Assay results published in PubChem BioAssay (NCI).
#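 Assay format: 96-well plates, 48-hour exposure. The concentration for 50% growth inhibition is given as GI50. Definition used: TGI = concentration required for complete inhibition of growth.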 *1 amine or outer side, *2 acyl side, *3 side chain or, on linkers, in order; H or OH if unused. Where a SMILES comes first, the peptide text is derived from it. [ ]: non-standard residue; d: D form. ξ: configuration not given here. X21 = CC[C@@H](C)C(N[*:1])C(=O)[*:2]; ξR = N=C(N)NCCCC(N)C(=O)O; ξI = CCC(C)C(N)C(=O)O; ξL = CC(C)CC(N)C(=O)O; ξK = NCCCCC(N)C(=O)O; ξV = CC(C)C(N)C(=O)O; ξA = CC(N)C(=O)O
# Columns and labels:
# Test in all cases: NCI anticancer screen, dose series, 48 h
# RXF 393 renal = test system: RXF 393 renal
# U251 CNS = test system: U251 CNS
# COLO 205 colon = test system: COLO 205 colon
# HCT-15 colon = test system: HCT-15 colon
# HT29 colon = test system: HT29 colon
# MDA-MB-231 breast = test system: MDA-MB-231 breast
# SNB-19 CNS = test system: SNB-19 CNS
# MALME-3M melanoma = test system: MALME-3M melanoma
# HOP-62 NSCLC = test system: HOP-62 NSCLC
# CCRF-CEM leukemia = test system: CCRF-CEM leukemia
structure (smiles),measurement,setting,value
CCC(C)C1NC(=O)C(CC(C)C)NC(=O)C(C)NC(=O)C(C(C)C)NC(=O)C(CCCCN)NC(=O)C(CC(C)C)NC(=O)C(C(C)C)NC(=O)[C@H](C)NC(=O)C(C(C)CC)NC(=O)C(CCCN=C(N)N)NC(=O)C(CCCCN)NC(=O)C(CCCN=C(N)N)NC(=O)C(CCCCN)NC(=O)C([C@H](C)CC)NC(=O)C(CCCCN)NC1=O (stereo not given in full) (cyclo(A[ξV][ξL][ξK][ξV][ξA][ξL][ξI][ξK][X21][ξK][ξR][ξK][ξR][ξI])),GI50,RXF 393 renal,1520 nM
same,TGI,RXF 393 renal,2960 nM
same,GI50,U251 CNS,1500 nM
same,TGI,U251 CNS,3440 nM
same,GI50,COLO 205 colon,1490 nM
same,TGI,COLO 205 colon,3850 nM
same,GI50,HCT-15 colon,1480 nM
same,TGI,HCT-15 colon,3580 nM
same,GI50,HT29 colon,2590 nM
same,TGI,HT29 colon,10300 nM
same,GI50,MDA-MB-231 breast,1620 nM
same,TGI,MDA-MB-231 breast,3730 nM
same,GI50,SNB-19 CNS,2070 nM
same,TGI,SNB-19 CNS,10100 nM
same,GI50,MALME-3M melanoma,1120 nM
same,TGI,MALME-3M melanoma,2580 nM
same,GI50,HOP-62 NSCLC,1700 nM
same,TGI,HOP-62 NSCLC,4180 nM
same,GI50,CCRF-CEM leukemia,1430 nM
same,TGI,CCRF-CEM leukemia,5070 nM
